Assay results published in patent US9650340B2, “5-fluoro-N-(pyridin-2-yl)pyridin-2-amine derivatives containing a sulfoximine group” (BAYER PHARMA AKTIENGESELLSCHAFT, priority 2012, dated 2017).
Counter-ions that a name gives are not always drawn. Like-named read-outs stand apart in the source and are kept apart here.

Assays:
CDK2/CycE = target: T1, CDK2/CycE (Homo sapiens, UniProt P24941); assay: CDK2/CycE high ATP kinase assay (TR-FRET, 2 mM ATP); type: biochemical; conditions: Method 2b
T1 construct: GST; purchased ProQinase GmbH (Freiburg, Germany); host or cells: insect cells (Sf9)
Method: 2b. CDK2/CycE High ATP Kinase Assay:
CDK2/CycE-inhibitory activity of compounds of the present invention at 2 mM adenosine-tri-phosphate (ATP) was quantified employing the CDK2/CycE TR-FRET (TR-FRET=Time Resolved Fluorescence Energy Transfer) assay as described in the following paragraphs.
Recombinant fusion proteins of GST and human CDK2 and of GST and human CycE, expressed in insect cells (Sf9) and purified by Glutathion-Sepharose affinity chromatography, were purchase from ProQinase GmbH (Freiburg, Germany). As substrate for the kinase reaction biotinylated peptide biotin-Ttds-[…] (C-terminus in amid form) was used which can be purchased e.g. form the company JERINI peptide technologies (Berlin, Germany).
For the assay 50 nl of a 100 fold concentrated solution of the test compound in DMSO was pipetted into a black low volume 384 well microtiter plate (Greiner Bio-One, Frickenhausen, Germany), 2 μl of a solution of CDK2/CycE in aqueous assay buffer [50 mM Tris/HCl pH 8.0, 10 mM MgCl2, 1.0 mM dithiothreitol, 0.1 mM sodium ortho-vanadate, 0.01% (v/v) Nonidet-P40 (Sigma)] were added and the mixture was incubated for 15 min at 22° C. to allow pre-binding of the test compounds to the enzyme before the start of the kinase reaction. Then the kinase reaction was started by the addition of 3 μl of a solution ATP (3.33 mM=>final conc. in the 5 μl assay volume is 2 mM) and substrate (1.25 μM=>final conc. in the 5 μl assay volume is 0.75 μM) in assay buffer and the resulting mixture was incubated for a reaction time of 25 min at 22° C. The concentration of CDK2/CycE was adjusted depending of the activity of the enzyme lot and was chosen appropriate to have the assay in the linear range, typical concentrations were in the range of 15 ng/ml. The reaction was stopped by the addition of 5 μl of a solution of TR-FRET detection reagents (0.2 μM streptavidine-XL665 [Cisbio Bioassays, Codolet, France] and 1 nM anti-RB(pSer807/pSer811)-antibody from BD Pharmingen [#558389] and 1.2 nM LANCE EU-W1024 labeled anti-mouse IgG antibody [Perkin-Elmer, product no. AD0077, as an alternative a Terbium-cryptate-labeled anti-mouse IgG antibody from Cisbio Bioassays can be used]) in an aqueous EDTA-solution (100 mM EDTA, 0.2% (w/v) bovine serum albumin in 100 mM HEPES/NaOH pH 7.0).
The resulting mixture was incubated 1 h at 22° C. to allow the formation of complex between the phosphorylated biotinylated peptide and the detection reagents. Subsequently the amount of phosphorylated substrate was evaluated by measurement of the resonance energy transfer from the Eu-chelate to the streptavidine-XL. Therefore, the fluorescence emissions at 620 nm and 665 nm after excitation at 350 nm were measured in a TR-FRET reader, e.g. a Rubystar (BMG Labtechnologies, Offenburg, Germany) or a Viewlux (Perkin-Elmer). The ratio of the emissions at 665 nm and at 622 nm was taken as the measure for the amount of phosphorylated substrate.

[1] = system: HeLa, human cervical tumour cells; assay: Proliferation assay, HeLa (crystal violet); type: cell-based; conditions: 4 days, read-out: Inhibition of HeLa cell proliferation IC50
Method: (§1) Cultivated tumour cells (HeLa, human cervical tumour cells, ATCC CCL-2; NCI-H460, human non-small cell lung carcinoma cells, ATCC HTB-177; A2780, human ovarian carcinoma cells, ECACC #93112519; DU 145, hormone-independent human prostate carcinoma cells, ATCC HTB-81; HeLa-MaTu-ADR, multidrug-resistant human cervical carcinoma cells, EPO-GmbH Berlin; Caco-2, human colorectal carcinoma cells, ATCC HTB-37; B16F10, mouse melanoma cells, ATCC CRL-6475) were plated at a density of 5,000 cells/well (DU145, HeLa-MaTu-ADR), 3,000 cells/well (NCI-H460, HeLa), 2,500 cells/well (A2780), 1,500 cells/well (Caco-2), or 1,000 cells/well (B16F10) in a 96-well multititer plate in 200 μL of their respective growth medium supplemented 10% fetal calf serum. After 24 hours, the cells of one plate (zero-point plate) were stained with crystal violet (see below), while the medium of the other plates was replaced by fresh culture medium (200 μl), to which the test substances were added in various concentrations (0 μM, as well as in the range of 0.001-10 μM; the final concentration of the solvent dimethyl sulfoxide was 0.5%). The cells were incubated for 4 days in the presence of test substances. Cell proliferation was determined by staining the cells with crystal violet: the cells were fixed by adding 20 μl/measuring point of an 11% glutaric aldehyde solution for 15 minutes at room temperature. After three washing cycles of the fixed cells with water, the plates were dried at room temperature. The cells were stained by adding 100 μl/measuring point of a 0.1% crystal violet solution (pH 3.0). After three washing cycles of the stained cells with water, the plates were dried at room temperature. The dye was dissolved by adding 100 μl/measuring point of a 10% acetic acid solution. The extinction was determined by photometry at a wavelength of 595 nm. The change of cell number, in percent, was calculated by normalization of the measured values to the extinction values of the zero-point plate (=0%) and the extinction of the untreated (0 μm) cells (=100%). The IC50 values (inhibitory concentration at 50% of maximal effect) were determined by means of a 4 parameter fit. Non-adherent MOLM-13 human acute myeloid leukemia cells (DSMZ ACC 554) were seeded at a density of 5,000 cells/well in a 96-well multititer plate in 100 μL of growth medium supplemented 10% fetal calf serum. After 24 hours, cell viability of one plate (zero-point plate) was determined with the Cell Titre-Glo Luminescent Cell Viability Assay (Promega), while 50 μL of test compound containing medium was added to the wells of the other plates (final concentrations in the range of 0.001-10 μM and DMSO controls; the final concentration of the solvent dimethyl sulfoxide was 0.5%). Cell viability was assessed after 72-hour exposure with the Cell Titre-Glo Luminescent Cell Viability Assay (Promega).

[2] = system: DU 145, hormone-independent human prostate carcinoma cells; assay: Proliferation assay, DU145 (crystal violet); type: cell-based; conditions: DU145, 4 days, read-out: Inhibition of DU145 cell proliferation IC50
Method: as §1

| SMILES | IC50 (CDK2/CycE) [nM] | IC50 ([1]; Homo sapiens, 96 h) [nM] | IC50 ([2]; Homo sapiens, DU-145, 96 h) [nM] | IC50 [1] [nM] | IC50 [2] [nM] |
| --- | --- | --- | --- | --- | --- |
| CCOc1cc(F)ccc1-c1cc(Nc2cc(CS(C)(=N)=O)cc(F)n2)ncc1F (single isomer, unassigned; (+)) [Example 28, (+)-4-(2-Ethoxy-4-fluorophenyl)-5-fluoro-N-{6-fluoro-4-[(S-methylsulfonimidoyl)methyl]pyridin-2-yl}pyridin-2-amine] | 1170 | 99 | 120 |  |  |
| COc1cc(F)ccc1-c1cc(Nc2cc(CS(=N)(=O)CCO)ccn2)ncc1F (racemic) [Example 8, (rac)-2-{S-[(2-{[5-Fluoro-4-(4-fluoro-2-methoxyphenyl)pyridin-2-yl]amino}pyridin-4-yl)methyl]sulfonimidoyl}ethanol] | 4190 | 140 | 110 |  |  |
| COc1cc(F)ccc1-c1cc(Nc2cc(CS(C)(=O)=NC(=O)C(F)(F)F)cc(C(F)(F)F)n2)ncc1F (single isomer, unassigned; (+)) [Example 24, (+)-2,2,2-Trifluoro-N-[{[2-{[5-fluoro-4-(4-fluoro-2-methoxyphenyl)pyridin-2-yl]amino}-6-(trifluoromethyl)-pyridin-4-yl]methyl}(methyl)oxido-λ^6-sulfanylidene]acetamide] | 4000 | 32 | 33 |  |  |
| CCOc1cc(F)ccc1-c1cc(Nc2cc(CS(C)(=N)=O)cc(F)n2)ncc1F (racemic) [Example 26, (rac)-4-(2-Ethoxy-4-fluorophenyl)-5-fluoro-N-{6-fluoro-4-[(S-methylsulfonimidoyl)methyl]pyridin-2-yl}pyridin-2-amine] | 1200 | 43 | 110 |  |  |
| COc1cc(F)ccc1-c1cc(Nc2cc(CS(C)(=N)=O)ccn2)ncc1F (single isomer, unassigned; enantiomer 1) [Example 16, 5-Fluoro-4-(4-fluoro-2-methoxyphenyl)-N-{4-[(S-methylsulfonimidoyl)methyl]pyridin-2-yl}pyridin-2-amine hydrochloride; enantiomer 1] | 5150 |  |  | 63 | 120 |
| COc1cc(F)ccc1-c1cc(Nc2cc(CS(C)(=N)=O)cc(C)n2)ncc1F (single isomer, unassigned; (+)) [Example 32, (+)-5-Fluoro-4-(4-fluoro-2-methoxyphenyl)-N-{6-methyl-4-[(S-methylsulfonimidoyl)methyl]pyridin-2-yl}pyridin-2-amine] | 1120 | 31 | 38 |  |  |
| CCOC(=O)N=S(C)(=O)Cc1cc(Nc2cc(-c3ccc(F)cc3OC)c(F)cn2)nc(OC)c1 (racemic) [Example 15, (rac)-ethyl{[(2-{[5-fluoro-4-(4-fluoro-2-methoxyphenyl)pyridin-2-yl]amino}-6-methoxypyridin-4-yl)methyl](methyl)oxido-λ^6-sulfanylidene}carbamate] | 123 | 40 | 31 |  |  |
| COc1cc(F)ccc1-c1cc(Nc2cc(CS(C)(=N)=O)ccn2)ncc1F (single isomer, unassigned; (-)) [Example 3, (−)-5-Fluoro-4-(4-fluoro-2-methoxyphenyl)-N-{4-[(S-methylsulfonimidoyl)methyl]pyridin-2-yl}pyridin-2-amine] | 2490 |  |  | 100 | 37 |
| COc1cc(F)ccc1-c1cc(Nc2cc(CS(C)(=N)=O)cc(C(F)(F)F)n2)ncc1F (single isomer, unassigned; (-)) [Example 23, (−)-5-Fluoro-4-(4-fluoro-2-methoxyphenyl)-N-{4-[(S-methylsulfonimidoyl)methyl]-6-(trifluoromethyl)pyridin-2-yl}pyridin-2-amine] | 283 |  |  | 30 | 34 |
| COc1cc(F)ccc1-c1cc(Nc2cc(CS(C)(=N)=O)cc(F)n2)ncc1F (single isomer, unassigned; (-)) [Example 20, (−)-5-Fluoro-4-(4-fluoro-2-methoxyphenyl)-N-{6-fluoro-4-[(S-methylsulfonimidoyl)methyl]pyridin-2-yl}pyridin-2-amine] | 815 | 30 |  |  | 58 |
| CCOC(=O)N=S(C)(=O)Cc1ccnc(Nc2cc(-c3ccc(F)cc3OC)c(F)cn2)c1 (racemic) [Example 11, (rac)-Ethyl{[(2-{[5-fluoro-4-(4-fluoro-2-methoxyphenyl)pyridin-2-yl]amino}pyridin-4-yl)methyl](methyl)oxido-λ^6-sulfanylidene}carbamate] | 2920 | 72 | 110 |  |  |
| CCS(=N)(=O)Cc1ccnc(Nc2cc(-c3ccc(F)cc3OC)c(F)cn2)c1 (racemic) [Example 30, (rac)-N-{4-[(S-Ethylsulfonimidoyl)-methyl]pyridin-2-yl}-5-fluoro-4-(4-fluoro-2-methoxyphenyl)pyridin-2-amine] | 300 | 100 | 82 |  |  |
| COc1cc(F)ccc1-c1cc(Nc2cc(CS(C)(=N)=O)cc(C(F)(F)F)n2)ncc1F (racemic) [Example 21, (rac)-5-Fluoro-4-(4-fluoro-2-methoxyphenyl)-N-{4-[(S-methylsulfonimidoyl)methyl]-6-(trifluoromethyl)pyridin-2-yl}pyridin-2-amine] | 133 | 29 | 30 |  |  |
| COc1cc(CS(C)(=N)=O)cc(Nc2cc(-c3ccc(F)cc3OC)c(F)cn2)n1 (racemic) [Example 6, (rac)-5-Fluoro-4-(4-fluoro-2-methoxyphenyl)-N-{6-methoxy-4-[(S-methylsulfonimidoyl)methyl]pyridin-2-yl}pyridin-2-amine] | 84 | 21 | 30 |  |  |
